The source of these data is patent US20260026506A1, “COMPOSITION FOR DISSOLVING AN OILY COMPOUND IN WATER” (AFFIX LABS OY, priority 2022, published 2026).

Series [1] in a line: Dissolving icaridin in water with individual components only (Example 2, visual result). It is filed as physicochemical. The conditions noted are these: icaridin 5.0 wt.%. As to the method:
In this experiment, it is tested if the combination of the cosolvent and the surfactant is required to dissolve icaridin or if individual components can also dissolve icaridin in water.
Deionized water was brought in a beaker equipped with a stirring bar and placed on a stirring plate. The (when applicable) cosolvent was added to the solution whilst stirring. Subsequently (when applicable) the surfactant was added, before this dissolved also (when applicable) icaridin was added. Stirring is stopped when everything is dissolved.

Series [2] can be described thus: Dissolving DEET with the composition of the invention (Example 3, general procedure). It is filed as physicochemical. Conditions: composition of Table 3. As to the method: A general procedure to prepare the solution of an active compound in the composition of the invention is applied: • Deionized water was brought in a beaker equipped with a stirring bar and placed on a stirring plate. The cosolvent was added to the solution whilst stirring. Subsequently, the surfactant was added, and before the surfactant was dissolved also icaridin was added. Stirring is stopped when all components of the composition are dissolved.
The same test was applied to determine if the composition of the invention is also able to dissolve alternative water-insoluble compounds. In this experiment icaridin was switched for DEET and the general procedure was applied.

Molecules are shown by their SMILES.

Take `CCC(C)OC(=O)N1CCCCC1CCO` (centres unmarked) [icaridin]: the “Solubility of icaridin in water (conclusion from Table 2)” value in series [1] was “only soluble in water using the combination cosolvent and surfactants”.

With `CCN(CC)C(=O)c1cccc(C)c1` [DEET, N,N-diethyl-m-toluamide], the “Amount dissolved in water by the composition of the invention” value in series [2] is reported as 5 wt. %.
